Experimental data published in the Deep4Chem optical property database.
Blank lines part the entries; values can stand above or below the molecule they belong to.

Experiment: photoluminescence quantum yield (fraction); solvent given as SMILES

- photoluminescence quantum yield (in C1CCCCC1): 0.93
SMILES: c1cc2c3c(c1)OCCCCCCOc1cccc(c1-c1c4ccccc4c-3c3ccccc13)OCCCCCCO2

- photoluminescence quantum yield (in CC#N): 0.58
- photoluminescence quantum yield (in ClCCl): 0.73
SMILES: O=c1c2cc(I)ccc2nc2n1[B-](F)(F)[n+]1ccccc1-2

- photoluminescence quantum yield (in CC#N): 0.564
- photoluminescence quantum yield (in CCCCCC): 0.108
- photoluminescence quantum yield (in CO): 0.194
- photoluminescence quantum yield (in ClC(Cl)Cl): 0.433
SMILES: c1ccc2cc3cc(-c4cc(-c5nccs5)nc(-c5nccs5)c4)ccc3cc2c1

- photoluminescence quantum yield (in CCO): 0.18
- photoluminescence quantum yield (in ClC(Cl)Cl): 0.22
- photoluminescence quantum yield (in ClCCl): 0.31
SMILES: CCN(CC)c1ccc2cc3c([o+]c2c1)/C(=C/Nc1ccccc1)CCC3

- photoluminescence quantum yield (in ClC(Cl)Cl): 0.15
SMILES: Cc1ccc2c(c1)c(C#N)c(C#N)c1cc(C)ccc12

- photoluminescence quantum yield (in C1CCOC1): 4e-05
SMILES: C1=Cc2ccccc2C(=Cc2ccc(C=C3c4ccccc4-c4ccccc43)cc2)c2ccccc21

- photoluminescence quantum yield (in CC#N): 0.08
- photoluminescence quantum yield (in CCCCCC): 0.95
- photoluminescence quantum yield (in CO): 0.14
- photoluminescence quantum yield (in ClC(Cl)Cl): 0.3
- photoluminescence quantum yield (in ClCCl): 0.32
SMILES: F[B-]1(F)n2c(nc3c4ccccc4c4ccccc4c32)-c2cccc[n+]21

SMILES: CC(C)(C)c1ccc2c(c1)c1cc(C(C)(C)C)ccc1n2-c1cc(N2c3ccccc3C(c3ccccc3)(c3ccccc3)c3ccccc32)cc(-n2c3ccc(C(C)(C)C)cc3c3cc(C(C)(C)C)ccc32)c1C#N
- photoluminescence quantum yield (in Cc1ccccc1): 0.2

- photoluminescence quantum yield (in CCO): 0.137
- photoluminescence quantum yield (in ClCCl): 0.0812
- photoluminescence quantum yield (in O): 0.1
SMILES: Oc1cc(-c2ccco2)ccc1-c1nc2ccccc2s1

- photoluminescence quantum yield (in ClCCl): 0.0612
SMILES: CC1(C)c2ccccc2N(c2ccc(-c3nc(-c4ccccn4)n(-c4ccccc4)n3)cc2)c2ccccc21

- photoluminescence quantum yield (in ClC(Cl)Cl): 0.1
SMILES: COc1ccc2c(C#N)cc3ccc4cc(C#N)c5ccc(OC)cc5c4c3c2c1

- photoluminescence quantum yield (in CCO): 0.1
- photoluminescence quantum yield (in CO): 0.08
- photoluminescence quantum yield (in CS(C)=O): 0.18
SMILES: CN1/C(=C/C=C(/C=C/c2sc3ccccc3[n+]2C)c2cc(F)cc(F)c2)Sc2ccccc21

- photoluminescence quantum yield (in ClCCl): 0.15
SMILES: CCOC(=O)c1sc(-c2ccc(-c3cc(-c4ccc(C(C)(C)C)cc4)c(C(=O)OCC)s3)s2)cc1-c1ccc(C(C)(C)C)cc1

SMILES: COc1ccc(C2=CC(c3cc(OC)cc(OC)c3)=[O+][B-](F)(F)O2)cc1
- photoluminescence quantum yield (in CC#N): 0.02
- photoluminescence quantum yield (in CC(C)=O): 0.04
- photoluminescence quantum yield (in CCCCCC): 0.25
- photoluminescence quantum yield (in Cc1ccccc1): 0.19
- photoluminescence quantum yield (in ClCCl): 0.08

- photoluminescence quantum yield (in CC#N): 0.26
- photoluminescence quantum yield (in CCOC(C)=O): 0.22
- photoluminescence quantum yield (in CO): 0.1
SMILES: COC(=O)C[C@H](Cc1c[nH]c2ccccc12)NC(=O)[C@H](CC(=O)N[C@@H](CC1=CCc2ccccc21)C(=O)OC)NC(=O)[C@H](Cc1c[nH]c2ccccc12)NC(=O)OC(C)(C)C

- photoluminescence quantum yield (in ClCCl): 0.55
SMILES: COc1ccc(-c2cc3c(ccc4sccc43)s2)cc1

- photoluminescence quantum yield (in C1CCCCC1): 0.85
- photoluminescence quantum yield (in CC#N): 0.02
- photoluminescence quantum yield (in CO): 0.003
- photoluminescence quantum yield (in ClC(Cl)Cl): 0.73
SMILES: CN(C)c1ccc(-c2nc(C#N)c(C#N)n2C)cc1

- photoluminescence quantum yield (in ClCCl): 0.082
SMILES: CCCCCc1c(C(=O)c2ccc3c4c(cccc24)-c2cccc4c2C3CC=C4)c2ccc3cccc4c5cccc6ccc1c(c65)c2c34 (stereo unspecified)

SMILES: Fc1c(-n2c3ccccc3c3ccccc32)c(-c2nnc(-c3ccccc3)o2)c(-n2c3ccccc3c3ccccc32)c(-n2c3ccccc3c3ccccc32)c1-n1c2ccccc2c2ccccc21
- photoluminescence quantum yield (in Cc1ccccc1): 0.1

- photoluminescence quantum yield (in ClCCl): 0.1
SMILES: c1ccc([B-]23NC(C4CCCCC4)=Nc4cccc([n+]42)N=C(C2CCCCC2)N3)cc1

- photoluminescence quantum yield (in CC#N): 0.068
SMILES: CCN(CC)c1ccc(/C=N/C2CCCCC2/N=C/c2ccc(N(CC)CC)cc2O)c(O)c1 (stereo unspecified)

SMILES: CN(C)CCN(Cc1c2ccccc2cc2ccccc12)c1ccc([N+](=O)[O-])cc1
- photoluminescence quantum yield (in C1CCCCC1): 0.0008
- photoluminescence quantum yield (in C1CCOC1): 0.0015
- photoluminescence quantum yield (in CC#N): 0.0143
- photoluminescence quantum yield (in CC(C)=O): 0.022
- photoluminescence quantum yield (in CCO): 0.023
- photoluminescence quantum yield (in CN(C)C=O): 0.0411
- photoluminescence quantum yield (in CO): 0.0606
- photoluminescence quantum yield (in ClC(Cl)Cl): 0.0272

- photoluminescence quantum yield (in CN(C)C=O): 0.076
SMILES: Cc1ccc2nc(-c3cccc4nc(C)[nH]c(=O)c34)oc2c1

- photoluminescence quantum yield (in C1CCCCC1): 0.51
SMILES: C1=C(c2ccccc2)B(c2ccccc2)Nc2c1ccc1ccccc21

- photoluminescence quantum yield (in ClC(Cl)Cl): 0.89
SMILES: CCCCCCCCOc1ccc(-c2c3c4n(c(-c5ccc(OCCCCCCCC)cc5)c3c3n2[B-](F)(F)[n+]2ccccc2N=3)[B-](F)(F)[n+]2ccccc2N=4)cc1

- photoluminescence quantum yield (in ClCCl): 0.38
SMILES: CCCCC(CC)Cn1c2cc(C#N)ccc2c2ccc(C#Cc3ccc4ccc5c(C#Cc6ccc7c8ccc(C#N)cc8n(CC(CC)CCCC)c7c6)ccc6ccc3c4c65)cc21 (stereo unspecified)

- photoluminescence quantum yield (in ClCCl): 0.157
SMILES: CCCCCCCCCCCCN1C(=O)c2c(c3ccc4cc(-c5ccc(C=O)cc5)c(OC)cc4c3c3c2ccc2cc(-c4ccc(C=O)cc4)c(OC)cc23)C1=O

SMILES: Nc1ccc2c3c(cccc13)C(=O)c1ccccc1-2
- photoluminescence quantum yield (in CC#N): 0.1
- photoluminescence quantum yield (in CC(C)=O): 0.11
- photoluminescence quantum yield (in CC(C)O): 0.03
- photoluminescence quantum yield (in CCCCOCCCC): 0.34
- photoluminescence quantum yield (in CCOC(C)=O): 0.21
- photoluminescence quantum yield (in CCOCC): 0.26
- photoluminescence quantum yield (in CO): 0.02
- photoluminescence quantum yield (in Cc1ccccc1): 0.3
- photoluminescence quantum yield (in Clc1ccccc1): 0.25
- photoluminescence quantum yield (in N#Cc1ccccc1): 0.14
- photoluminescence quantum yield (in O=C1CCCCC1): 0.15

- photoluminescence quantum yield (in ClCCl): 0.82
SMILES: CCOC(=O)c1ccc(C2=Cc3ccccc3P2(=O)c2ccccc2)cc1 (stereo unspecified)

- photoluminescence quantum yield (in ClCCl): 0.0641
SMILES: CC1=C(Br)C(C)=[N+]2C1=C(c1c(-c3ccccn3)nc3ccccn13)c1c(C)c(Br)c(C)n1[B-]2(F)F

SMILES: O=P1(c2ccccc2)c2ccc(N3c4ccccc4Sc4ccccc43)cc2-c2cc(N3c4ccccc4Sc4ccccc43)ccc21
- photoluminescence quantum yield (in Cc1ccccc1): 0.59
- photoluminescence quantum yield (in c1ccc2c(c1)c1ccccc1n2-c1ccc(-c2ccc(-n3c4ccccc4c4ccccc43)cc2)cc1): 0.53

SMILES: O=C1c2ccc3c4ccc5c6c(ccc(c7ccc(c2c37)C(=O)N1c1ccncc1)c64)C(=O)N(c1ccncc1)C5=O
- photoluminescence quantum yield (in C1CCOC1): 0.508
- photoluminescence quantum yield (in C1COCCO1): 0.847
- photoluminescence quantum yield (in CC(C)=O): 0.758
- photoluminescence quantum yield (in CC(C)O): 0.454
- photoluminescence quantum yield (in CCCCO): 0.46
- photoluminescence quantum yield (in CCO): 0.201
- photoluminescence quantum yield (in CCOC(C)=O): 0.337
- photoluminescence quantum yield (in CN(C)C=O): 0.438
- photoluminescence quantum yield (in CO): 0.206
- photoluminescence quantum yield (in CS(C)=O): 0.057
- photoluminescence quantum yield (in ClC(Cl)(Cl)Cl): 0.97
- photoluminescence quantum yield (in ClC(Cl)Cl): 0.97

- photoluminescence quantum yield (in C1CCCCC1): 0.51
SMILES: C[Si](C)(C)C#CC#Cc1ccc2c3cccc4cccc(c5cccc1c52)c43

- photoluminescence quantum yield (in CO): 0.55
SMILES: COc1ccc(-c2cc(B(c3c(C)cc(C)cc3C)c3c(C)cc(C)cc3C)c(-c3sc(-c4ccc(OC)cc4)cc3P(=O)(c3ccccc3)c3ccccc3)s2)cc1

SMILES: c1ccc(-c2nc(-c3ccccc3)nc(-c3ccc(N4c5ccccc5C5(c6ccccc6-c6ccccc65)c5ccccc54)cc3)n2)cc1
- photoluminescence quantum yield (in O=P(c1ccccc1)(c1ccccc1)c1ccccc1Oc1ccccc1P(=O)(c1ccccc1)c1ccccc1): 0.801

- photoluminescence quantum yield (in CN(C)C=O): 0.275
SMILES: Cc1nc2cccc(-c3nc4ccc(Cl)cc4o3)c2c(=O)[nH]1

- photoluminescence quantum yield (in CC#N): 1
- photoluminescence quantum yield (in CCO): 0.88
- photoluminescence quantum yield (in CN(C)C=O): 0.74
- photoluminescence quantum yield (in O): 0.89
SMILES: COC(=O)c1ccccc1-c1c2ccc(=[NH2+])cc-2oc2cc(N)ccc12

- photoluminescence quantum yield (in C1CCOC1): 0.32
SMILES: c1ccc(/C(=C(\c2ccccc2)c2ccccc2-c2ccc(-c3ccccc3)cc2)c2ccccc2-c2ccc(-c3ccccc3)cc2)cc1

- photoluminescence quantum yield (in ClCCl): 0.75
SMILES: COc1ccc(C#Cc2c3ccccc3c(C#Cc3ccc(OC)cc3)c3cc4sc(C)cc4cc23)cc1

SMILES: Cc1ccc(OCc2cc(=O)oc3c2ccc2ccccc23)cc1
- photoluminescence quantum yield (in C1CCOC1): 0.0561
- photoluminescence quantum yield (in C1COCCO1): 0.0665
- photoluminescence quantum yield (in CC#N): 0.0506
- photoluminescence quantum yield (in CC(C)=O): 0.0465
- photoluminescence quantum yield (in CCCCO): 0.0333
- photoluminescence quantum yield (in CCCO): 0.0312
- photoluminescence quantum yield (in CCO): 0.028
- photoluminescence quantum yield (in CCOC(C)=O): 0.0471
- photoluminescence quantum yield (in CN(C)C=O): 0.0576
- photoluminescence quantum yield (in CO): 0.0265
- photoluminescence quantum yield (in Cc1ccccc1): 0.0798
- photoluminescence quantum yield (in ClCCl): 0.0584

- photoluminescence quantum yield (in ClC(Cl)Cl): 0.24
SMILES: Cc1cc(C)c(C2=C3C=CC=[N+]3[B-]3(c4ccc5ccc6cccc7ccc4c5c67)Oc4cc(O)cc5c6ccc(C)cc6c6cc2n3c6c45)c(C)c1 (stereo unspecified)

- photoluminescence quantum yield (in ClCCl): 0.45
SMILES: F[B-]1(F)N2C=CN=CC2=[N+]2[N+]1=Cc1c(-c3ccccc3)cc(-c3cccs3)n1[B-]2(F)F

- photoluminescence quantum yield (in C1CCCCC1): 1
SMILES: CCCC1(CCC)c2cc(-c3ccccc3)ccc2-c2ccc(-c3ccc4c(c3)C(CCC)(CCC)c3cc(-c5ccccc5)ccc3-4)cc21

- photoluminescence quantum yield (in ClCCl): 0.47
SMILES: CN(C)c1ccc(-c2cccc3nsnc23)cc1

- photoluminescence quantum yield (in C1COCCO1): 0.61
- photoluminescence quantum yield (in CC#N): 0.58
- photoluminescence quantum yield (in CO): 0.49
- photoluminescence quantum yield (in ClCCl): 0.58
SMILES: CNc1ncc2nc(C#N)n(Cc3ccccc3)c2n1

- photoluminescence quantum yield (in CCCCCC): 0.685
SMILES: COC(=O)c1c(C(=O)OC)c2ccc(-c3ccccc3)nn2c1C

- photoluminescence quantum yield (in ClCCl): 0.26
SMILES: CCN(CC)c1ccc2n1[B-](F)(F)[N+]1=CC(/C=C/C(=O)OC(C)(C)C)=CC1=C2c1c(C)cc(C)cc1C

- photoluminescence quantum yield (in CC#N): 0.0071
- photoluminescence quantum yield (in CCCCCC): 0
- photoluminescence quantum yield (in CCO): 0.13
- photoluminescence quantum yield (in CCOC(C)=O): 0.0006
- photoluminescence quantum yield (in CO): 0.21
- photoluminescence quantum yield (in ClC(Cl)Cl): 0.011
- photoluminescence quantum yield (in OCC(F)(F)F): 0.33
SMILES: COc1ccc2cc3c(C)cc(=O)oc3cc2c1

- photoluminescence quantum yield (in C1CCCCC1): 0.4
- photoluminescence quantum yield (in CC#N): 0.42
- photoluminescence quantum yield (in CO): 0.34
- photoluminescence quantum yield (in ClCCl): 0.57
SMILES: COc1c2ccccc2c(OC)c2c1c1ccc(C)cc1n2C

- photoluminescence quantum yield (in ClCCl): 0.41
SMILES: C(=C\c1cnccn1)/c1ccc(N(c2ccccc2)c2ccccc2)cc1

SMILES: CC(C)(C)c1ccc2c(c1)[nH]c1c3[nH]c4cc(C(C)(C)C)ccc4c3c3nsnc3c21
- photoluminescence quantum yield (in CN(C)C=O): 0.09
- photoluminescence quantum yield (in Cc1ccccc1): 0.11
- photoluminescence quantum yield (in ClCCl): 0.12

- photoluminescence quantum yield (in C1CCOC1): 0.972
- photoluminescence quantum yield (in CC#N): 0.973
- photoluminescence quantum yield (in CN(C)C=O): 0.949
- photoluminescence quantum yield (in ClC(Cl)Cl): 0.982
- photoluminescence quantum yield (in c1ccccc1): 0.972
SMILES: COc1ccc(C#Cc2ccc(C#Cc3ccc(C#Cc4ccccc4C#N)cc3C#N)cc2C#N)cc1
